Laboratory results taken from patent US20110039721A1, “METHOD FOR PREDICTION ABOUT CARCINOGENICITY OF SUBSTANCE IN RODENT” (Chemicals Evaluation and Research Institute, priority 2007, published 2011).

Tested on: mRNA expressed from the genes (A) to (D) in rat liver
Assay: Behavior of genes (mRNA expression level, oligo-DNA microarray) in rat liver after 28-day oral administration
Format: in vivo
Details: for Behavior of gene caused by administration of chemical substance, Gene No. 4846 / Behavior of gene caused by administration of chemical substance, Gene No. 2026 / Behavior of gene caused by administration of chemical substance, Gene No. 4218 / Behavior of gene caused by administration of chemical substance, Gene No. 6182 / Behavior of gene caused by administration of chemical substance, Gene No. 5600: gene group (A); for Behavior of gene caused by administration of chemical substance, Gene No. 4846: Unigene No. Rn.144554; for Behavior of gene caused by administration of chemical substance, Gene No. 2026 / Behavior of gene caused by administration of chemical substance, Gene No. 4218: Unigene No. Rn.167075; for Behavior of gene caused by administration of chemical substance, Gene No. 6182: Unigene No. Rn.5834; for Behavior of gene caused by administration of chemical substance, Gene No. 5600: Unigene No. Rn.9836; for Behavior of gene caused by administration of chemical substance, Gene No. 1494 / Behavior of gene caused by administration of chemical substance, Gene No. 2045 / Behavior of gene caused by administration of chemical substance, Gene No. 2203: gene group (B); for Behavior of gene caused by administration of chemical substance, Gene No. 1494: Unigene No. Rn.1430; for Behavior of gene caused by administration of chemical substance, Gene No. 2045: Unigene No. Rn.19329; for Behavior of gene caused by administration of chemical substance, Gene No. 2203: Unigene No. Rn.21240; for Behavior of gene caused by administration of chemical substance, Gene No. 533 / Behavior of gene caused by administration of chemical substance, Gene No. 725 / Behavior of gene caused by administration of chemical substance, Gene No. 1163 / Behavior of gene caused by administration of chemical substance, Gene No. 4973 / Behavior of gene caused by administration of chemical substance, Gene No. 4095 / Behavior of gene caused by administration of chemical substance, Gene No. 1334 / Behavior of gene caused by administration of chemical substance, Gene No. 6620 / Behavior of gene caused by administration of chemical substance, Gene No. 6303 / Behavior of gene caused by administration of chemical substance, Gene No. 5878 / Behavior of gene caused by administration of chemical substance, Gene No. 1131 / Behavior of gene caused by administration of chemical substance, Gene No. 1562 / Behavior of gene caused by administration of chemical substance, Gene No. 1741 / Behavior of gene caused by administration of chemical substance, Gene No. 893 / Behavior of gene caused by administration of chemical substance, Gene No. 6026 / Behavior of gene caused by administration of chemical substance, Gene No. 154 / Behavior of gene caused by administration of chemical substance, Gene No. 1993 / Behavior of gene caused by administration of chemical substance, Gene No. 813 / Behavior of gene caused by administration of chemical substance, Gene No. 2494 / Behavior of gene caused by administration of chemical substance, Gene No. 2546 / Behavior of gene caused by administration of chemical substance, Gene No. 3776 / Behavior of gene caused by administration of chemical substance, Gene No. 3929 / Behavior of gene caused by administration of chemical substance, Gene No. 1119 / Behavior of gene caused by administration of chemical substance, Gene No. 6742 / Behavior of gene caused by administration of chemical substance, Gene No. 5634: gene group (C); for Behavior of gene caused by administration of chemical substance, Gene No. 533: Unigene No. Rn.106184; for Behavior of gene caused by administration of chemical substance, Gene No. 725: Unigene No. Rn.108075; for Behavior of gene caused by administration of chemical substance, Gene No. 1163: Unigene No. Rn.11766; for Behavior of gene caused by administration of chemical substance, Gene No. 4973: Unigene No. Rn.118529; for Behavior of gene caused by administration of chemical substance, Gene No. 4095: Unigene No. Rn.119024; for Behavior of gene caused by administration of chemical substance, Gene No. 1334 / Behavior of gene caused by administration of chemical substance, Gene No. 6620: Unigene No. Rn.120914; for Behavior of gene caused by administration of chemical substance, Gene No. 6303: Unigene No. Rn.123063; for Behavior of gene caused by administration of chemical substance, Gene No. 5878: Unigene No. Rn.143213; for Behavior of gene caused by administration of chemical substance, Gene No. 1131: Unigene No. Rn.144946; for Behavior of gene caused by administration of chemical substance, Gene No. 1562: Unigene No. Rn.14744; for Behavior of gene caused by administration of chemical substance, Gene No. 1741: Unigene No. Rn.1647; for Behavior of gene caused by administration of chemical substance, Gene No. 893: Unigene No. Rn.164817; for Behavior of gene caused by administration of chemical substance, Gene No. 6026: Unigene No. Rn.167685; for Behavior of gene caused by administration of chemical substance, Gene No. 154: Unigene No. Rn.185941; for Behavior of gene caused by administration of chemical substance, Gene No. 1993: Unigene No. Rn.18728; for Behavior of gene caused by administration of chemical substance, Gene No. 813: Unigene No. Rn.201760; for Behavior of gene caused by administration of chemical substance, Gene No. 2494: Unigene No. Rn.23969; for Behavior of gene caused by administration of chemical substance, Gene No. 2546: Unigene No. Rn.24561; for Behavior of gene caused by administration of chemical substance, Gene No. 3776: Unigene No. Rn.43232; for Behavior of gene caused by administration of chemical substance, Gene No. 3929: Unigene No. Rn.4620; for Behavior of gene caused by administration of chemical substance, Gene No. 1119: Unigene No. Rn.9757; for Behavior of gene caused by administration of chemical substance, Gene No. 6742: Unigene No. Rn.9779; for Behavior of gene caused by administration of chemical substance, Gene No. 5634: Unigene No. Rn.9862; for Behavior of gene caused by administration of chemical substance, Gene No. 5726: gene group (D), Unigene No. Rn.9939
Method: A test solution was prepared by dissolving each of the carcinogens and the non-carcinogens shown in Tables 2 to 6 in the corresponding solvent shown in Tables 2 to 6. Each of the thus prepared test solutions and the solvents used for the preparation was administered by oral gavage to rats in each group. As the rats, male rats (F344 SPF rats) at 5 weeks of age obtained from Charles River Laboratories Japan, Inc. were used. The animals were divided into groups, each containing four individuals. The volume of the solvent administered to the vehicle control group was set to the same volume as that of the test solution administered to the carcinogen administration group or the non-carcinogen administration group. The administration of the test solution or the solvent was performed once daily for 28 days. Apiece was excised from the liver of each of the rats after a lapse of 28 days from the initiation of the administration, and the total RNA was extracted and purified.
The expression level of mRNA was compared between each of the chemical substance administration groups and the corresponding vehicle control group, and genes that satisfy the requirements described in (A) to (D) were selected, respectively.
The case where the expression level of mRNA in the carcinogen administration group or the non-carcinogen administration group is 1.5 times or more or 1/1.5 or less of the expression level of the corresponding mRNA expressed in the control group was determined to be significant. In this connection, the determination as to whether or not the change is significant was performed by taking into consideration the direction of increase or decrease in the expression level. In the case where the direction of increase or decrease is different as compared with the case where another carcinogen was administered, the change was determined to be not significant.

## c1ccc2c(c1)cc1ccc3cccc4ccc2c1c34 [TS063, Benzo[a]pyrene]
mRNA vs vehicle control group
  Behavior of gene caused by administration of chemical substance, Gene No. 4846: −
  Behavior of gene caused by administration of chemical substance, Gene No. 2026: +
  Behavior of gene caused by administration of chemical substance, Gene No. 4218: −
  Behavior of gene caused by administration of chemical substance, Gene No. 6182: +
  Behavior of gene caused by administration of chemical substance, Gene No. 5600: −
  Behavior of gene caused by administration of chemical substance, Gene No. 1494: −
  Behavior of gene caused by administration of chemical substance, Gene No. 2045: +
  Behavior of gene caused by administration of chemical substance, Gene No. 2203: +
  Behavior of gene caused by administration of chemical substance, Gene No. 533: −
  Behavior of gene caused by administration of chemical substance, Gene No. 725: −
  Behavior of gene caused by administration of chemical substance, Gene No. 1163: −
  Behavior of gene caused by administration of chemical substance, Gene No. 4973: −
  Behavior of gene caused by administration of chemical substance, Gene No. 4095: −
  Behavior of gene caused by administration of chemical substance, Gene No. 1334: −
  Behavior of gene caused by administration of chemical substance, Gene No. 6620: −
  Behavior of gene caused by administration of chemical substance, Gene No. 6303: −
  Behavior of gene caused by administration of chemical substance, Gene No. 5878: −
  Behavior of gene caused by administration of chemical substance, Gene No. 1131: −
  Behavior of gene caused by administration of chemical substance, Gene No. 1562: −
  Behavior of gene caused by administration of chemical substance, Gene No. 1741: −
  Behavior of gene caused by administration of chemical substance, Gene No. 893: −
  Behavior of gene caused by administration of chemical substance, Gene No. 6026: −
  Behavior of gene caused by administration of chemical substance, Gene No. 154: −
  Behavior of gene caused by administration of chemical substance, Gene No. 1993: −
  Behavior of gene caused by administration of chemical substance, Gene No. 813: −
  Behavior of gene caused by administration of chemical substance, Gene No. 2494: −
  Behavior of gene caused by administration of chemical substance, Gene No. 2546: −
  Behavior of gene caused by administration of chemical substance, Gene No. 3776: −
  Behavior of gene caused by administration of chemical substance, Gene No. 3929: −
  Behavior of gene caused by administration of chemical substance, Gene No. 1119: −
  Behavior of gene caused by administration of chemical substance, Gene No. 6742: −
  Behavior of gene caused by administration of chemical substance, Gene No. 5634: +
  Behavior of gene caused by administration of chemical substance, Gene No. 5726: −

## C[C@H](CCC(=O)O)[C@H]1CC[C@H]2[C@@H]3CC[C@@H]4C[C@H](O)CC[C@]4(C)[C@H]3CC[C@]12C [TS040, Lithocholic acid]
  Behavior of gene caused by administration of chemical substance, Gene No. 4846: −
  Behavior of gene caused by administration of chemical substance, Gene No. 2026: −
  Behavior of gene caused by administration of chemical substance, Gene No. 4218: −
  Behavior of gene caused by administration of chemical substance, Gene No. 6182: −
  Behavior of gene caused by administration of chemical substance, Gene No. 5600: −
  Behavior of gene caused by administration of chemical substance, Gene No. 1494: −
  Behavior of gene caused by administration of chemical substance, Gene No. 2045: −
  Behavior of gene caused by administration of chemical substance, Gene No. 2203: −
  Behavior of gene caused by administration of chemical substance, Gene No. 533: −
  Behavior of gene caused by administration of chemical substance, Gene No. 725: −
  Behavior of gene caused by administration of chemical substance, Gene No. 1163: −
  Behavior of gene caused by administration of chemical substance, Gene No. 4973: −
  Behavior of gene caused by administration of chemical substance, Gene No. 4095: −
  Behavior of gene caused by administration of chemical substance, Gene No. 1334: −
  Behavior of gene caused by administration of chemical substance, Gene No. 6620: −
  Behavior of gene caused by administration of chemical substance, Gene No. 6303: −
  Behavior of gene caused by administration of chemical substance, Gene No. 5878: −
  Behavior of gene caused by administration of chemical substance, Gene No. 1131: −
  Behavior of gene caused by administration of chemical substance, Gene No. 1562: −
  Behavior of gene caused by administration of chemical substance, Gene No. 1741: −
  Behavior of gene caused by administration of chemical substance, Gene No. 893: −
  Behavior of gene caused by administration of chemical substance, Gene No. 6026: −
  Behavior of gene caused by administration of chemical substance, Gene No. 154: −
  Behavior of gene caused by administration of chemical substance, Gene No. 1993: −
  Behavior of gene caused by administration of chemical substance, Gene No. 813: −
  Behavior of gene caused by administration of chemical substance, Gene No. 2494: −
  Behavior of gene caused by administration of chemical substance, Gene No. 2546: −
  Behavior of gene caused by administration of chemical substance, Gene No. 3776: −
  Behavior of gene caused by administration of chemical substance, Gene No. 3929: −
  Behavior of gene caused by administration of chemical substance, Gene No. 1119: −
  Behavior of gene caused by administration of chemical substance, Gene No. 6742: +
  Behavior of gene caused by administration of chemical substance, Gene No. 5634: −
  Behavior of gene caused by administration of chemical substance, Gene No. 5726: −
